What was measured:
Haematococcus = assay: Selective effect on algae in test tubes (Table V), Haematococcus; assay type: cell-based; conditions: for cells/ml: 13 days after innoculation, average of 3 samples
Procedure: (§1) Another laboratory experiment was run to further substantiate the selective effect of one of the algaecides, potassium ricinoleate. Two species of blue-green algae, Lyngbya and Cylindrospermum, and three species of green algae, Chlorella, Haematococcus and Stigeoclonium and Tribonema, a yellow-green alga of the division Chrysophycophyta, were treated as follows: Twenty ml test tubes of sterile BBM culture solution were innoculated with each alga. All species of algae were evaluated with three groups, control, 2.5 ppm algaecide and 7.5 ppm algaecide. Each group was run with triplicate samples.
(§2) Controls were counted 6 days after innoculation, algaecide was added to the treatment groups seven days after innoculation and all test tubes were counted thirteen days after innoculation. The results are shown in Table V. After seven days, there was a 31% reduction in the Lyngbya cultures at 2.5 ppm algaecide and a 40% reduction at 7.5 ppm. After seven days, there was a 60% reduction in Cylindrospermum cultures at 2.5 ppm algaecide and a 72% reduction at 7.5 ppm. […] After thirteen days, there was a 55% reduction in numbers at both 2.5 ppm and 7.5 ppm. After twenty days there was a 27% reduction at both concentrations. […] They are, like blue-green algae, often associated with taste and odor problems.

zooplankton [1] = assay: Field Experiment II, catfish pond, zooplankton; assay type: in vivo; conditions: 2 ppm
Chlorophyll a = assay: Field Experiment I, chlorophyll a; assay type: in vivo; conditions: 10 ppm
Procedure: (§3) 1, 1980, to Mar. 19, 1981.
(§4) On July 30, 1980, most ponds had numbers of blue-green algae exceeding 2×10^6 cells/liter. These algae were predominantly Oscillatoria,Microcystis and Anacystis with smaller numbers of Nostoc, Anabaena and Lyngbya. The experimental pond had 1.2×10^6 cells/liter composed mainly of Microcystis sp. Large numbers of copepods and rotifers were present. On July 30, the pond was treated with 10 ppm potassium ricinoleate by distributing a 30% aqueous solution evenly through the water column by pump from a small boat. […] This is further substantiated by the dry weights and chlorophyll a levels.

[2] = system: sewage containing mostly green algae; assay: Sewage treatment test 1, mostly green algae; conditions: for cells/liter: after six days of aeration
Procedure: Two experiments were performed on sewage to further illustrate the utility of these algaecides. In the first experiment, sewage containing mostly green algae was treated with relatively high concentrations of potassium ricinoleate.

[3] = Field Experiment II, taste and odor of water; assay type: in vivo; conditions: 2 ppm on 5/26/81
Fish (adult catfish) = assay: Field Experiment II, taste and odor of fish; assay type: in vivo; conditions: for Fish Odor / Fish Taste: 2 ppm on 5/26/81
zooplankton [4] = assay: Field Experiment III, pond, zooplankton; assay type: in vivo; conditions: 2 ppm on 6/9/81
Procedure: In Field Experiment III, a small two acre pond was monitored for a complete year for plankton organisms as before. Oscillatoria and Microcystis were usually the prevalent blue-green algae. On 6/9/81 the pond was experiencing a bloom consisting completely of Oscillatoria. Channel catfish from the ponds had the characteristic earthy, musty taste and odor of 4 and 4 respectively on the 0 to 5 scale. The pond was treated on this date with 2 ppm potassium ricinoleate, one of the selective algaecides, as before.

Cylindrospermum = assay: Selective effect on algae in test tubes (Table V), Cylindrospermum; assay type: cell-based; conditions: for cells/ml: 13 days after innoculation, average of 3 samples
Procedure: as §1, §2

blue-green algae = assay: Field Experiment I, catfish pond, blue-green algae; assay type: in vivo, blue-green algae (mainly Microcystis sp.); conditions: 10 ppm
Procedure: as §3, §4

Zooplankton [5] = assay: Field Experiment I, catfish pond, zooplankton; assay type: in vivo, copepods and rotifers; conditions: 10 ppm
Procedure: as §3, §4

[6] = 7/31 post-treatment (treated July 30, 1980)
[7] = scale 0 to 5 (5 worst, 0 undetectable), 6/1/81
[8] = 168 h, read-out: reduction in cultures
[9] = 11/21 post-treatment (normal winter reduction)

Compound: CCCCCC[C@@H](O)C/C=C\CCCCCCCC(=O)[O-].[K+]
- effect (Haematococcus; 2.5 and 7.5 ppm, after seven days): stimulated
- cells/ml (Haematococcus; 2.5 ppm): 23000 cells/ml
- cells/ml (Haematococcus; 7.5 ppm): 52000 cells/ml
- Zoo #'s/liter (zooplankton [1]; 5/26/81 B post-treat, 4 p.m., Deep): 755 #'s/liter
- Zoo #'s/liter (zooplankton [1]; 5/26/81 C post-treat, 4 p.m., Shallow): 2270 #'s/liter
- Zoo #'s/liter (zooplankton [1]; 5/27/81 D, 9:40 p.m., Deep): 0 #'s/liter
- Zoo #'s/liter (zooplankton [1]; 5/27/81 E, 9:40 p.m., Shallow): 1510 #'s/liter
- Zoo #'s/liter (zooplankton [1]; 5/28/81 F, 7 a.m.): 756 #'s/liter
- Zoo #'s/liter (zooplankton [1]; 5/28/81 G, 11 a.m.): 2270 #'s/liter
- zooplankton after treatment (zooplankton [1]; through June, 1981): remained unchanged
- Chlorophyll a (Chlorophyll a; [6]): .000 absorbance at 663 nm
- Chlorophyll a (Chlorophyll a; 8/1 post-treatment): .064 absorbance at 663 nm
- Chlorophyll a (Chlorophyll a; 8/6 post-treatment): .000 absorbance at 663 nm
- Chlorophyll a (Chlorophyll a; 8/19 post-treatment): .002 absorbance at 663 nm
- Chlorophyll a (Chlorophyll a; 9/6 post-treatment): .240 absorbance at 663 nm
- cells/liter ([2]; 18.4 ppm): 1.91 × 10^5 cells/liter
- cells/liter ([2]; 46.0 ppm): 1.33 × 10^5 cells/liter
- cells/liter ([2]; 92.0 ppm): 2.30 × 10^5 cells/liter
- cells/liter ([2]; 184.1 ppm): 2.72 × 10^5 cells/liter
- effect on green algae ([2]; six days after treatment): somewhat stimulated
- Water Odor [3, 7]: 0
- Water Taste [3, 7]: 1
- Water Odor ([3]; scale 0 to 5, 6/5/81): 0
- Water Taste ([3]; scale 0 to 5, 6/5/81): 1
- Water Odor ([3]; scale 0 to 5, 6/12/81): 0
- Water Taste ([3]; scale 0 to 5, 6/12/81): 0
- Water Odor ([3]; scale 0 to 5, 6/15/81): 0
- Water Taste ([3]; scale 0 to 5, 6/15/81): 0
- Fish Odor (Fish (adult catfish); [7]): 2
- Fish Taste (Fish (adult catfish); [7]): 3
- Fish Odor (Fish (adult catfish); scale 0 to 5, 6/5/81): 1
- Fish Taste (Fish (adult catfish); scale 0 to 5, 6/5/81): 2
- Fish Odor (Fish (adult catfish); scale 0 to 5, 6/12/81): 1
- Fish Taste (Fish (adult catfish); scale 0 to 5, 6/12/81): 1
- Fish Odor (Fish (adult catfish); scale 0 to 5, 6/15/81): 0
- Fish Taste (Fish (adult catfish); scale 0 to 5, 6/15/81): 0
- earthy musty taste and odor of fish (Fish (adult catfish); 2 ppm, over a three week period): eliminated
- Zoo #'s/liter (zooplankton [4]; 6/10/81): 2251 #'s/liter
- Zoo #'s/liter (zooplankton [4]; 6/12/81): 4948 #'s/liter
- Zoo #'s/liter (zooplankton [4]; 6/22/81): 4541 #'s/liter
- cells/ml (Cylindrospermum; 2.5 ppm): 2500 cells/ml
- cells/ml (Cylindrospermum; 7.5 ppm): 1770 cells/ml
- inhibition of growth at 2.5 ppm (Cylindrospermum; [8]): 60%
- inhibition of growth at 7.5 ppm (Cylindrospermum; [8]): 72%
- Cells/Liter of bluegreen algae (blue-green algae; [6]): 3.2 × 10^5 Cells/Liter
- Cells/Liter of bluegreen algae (blue-green algae; 8/1 post-treatment): 1.8 × 10^5 Cells/Liter
- Cells/Liter of bluegreen algae (blue-green algae; 8/6 post-treatment): 1.0 × 10^5 Cells/Liter
- Cells/Liter of bluegreen algae (blue-green algae; 8/19 post-treatment): 5.4 × 10^5 Cells/Liter
- Cells/Liter of bluegreen algae (blue-green algae; 9/6 post-treatment): 3.8 × 10^5 Cells/Liter
- Cells/Liter of bluegreen algae (blue-green algae; 9/23 post-treatment): 1.9 × 10^6 Cells/Liter
- Cells/Liter of bluegreen algae (blue-green algae; [9]): 0 Cells/Liter
- Cells/Liter of bluegreen algae (blue-green algae; 12/14 post-treatment): 3.0 × 10^4 Cells/Liter
- blue-green algae killed (blue-green algae; seven days after treatment): 93%
- Zooplankton #/Liter (Zooplankton [5]; [6]): 2531 #/Liter
- Zooplankton #/Liter (Zooplankton [5]; 8/1 post-treatment): 2500 #/Liter
- Zooplankton #/Liter (Zooplankton [5]; 8/6 post-treatment): 4050 #/Liter
- Zooplankton #/Liter (Zooplankton [5]; 8/19 post-treatment): 2025 #/Liter
- Zooplankton #/Liter (Zooplankton [5]; 9/6 post-treatment): 4050 #/Liter
- Zooplankton #/Liter (Zooplankton [5]; 9/23 post-treatment): 506 #/Liter
- Zooplankton #/Liter (Zooplankton [5]; [9]): 1012 #/Liter
- Zooplankton #/Liter (Zooplankton [5]; 12/14 post-treatment): 1518 #/Liter
- numbers of zooplankton (Zooplankton [5]; seven days after treatment): essentially unchanged or increased in numbers

Reference: US4398937A, “Selective algaecides for control of cyanochloronta” (The University of Southern Mississippi, priority 1981, dated 1983)
